According to patent publication US20250295096A1, “A RODENT MODEL OF FIBRODYSPLASIA OSSIFICANS PROGRESSIVA” (REGENERON PHARMACEUTICALS, INC., priority 2022, published 2025):

Tested on: Acvr1^huecto[R206H]FIEx;[S330P]/+; Nanog-Cre mice ("FOP mice")
Test: Anti-Activin A antibody treatment of FOP mice: survival and HO formation
Type: in vivo, mouse
Protocol: Wild type mice and Acvr1^huecto[R206H]FIEx;[S330P]/+; Nanog-Cre mice (“FOP mice”) were treated with an anti-Activin A monoclonal antibody (Garetosmab) or an isotype control antibody.
Wild type mice and Acvr1^huecto[R206H]FIEx;[S330P]/+; Nanog-Cre mice (“FOP mice”) were treated with an anti-Activin A monoclonal antibody (Garetosmab) and an isotype control antibody. […] The deaths in untreated FOP mice are believed to be possibly due to jaw HO.

**Q.** Which HO formation (compared with isotype control antibody) does the source give for “Garetosmab: anti-Activin A monoclonal antibody” here?
**A.** inhibited HO formation

**Q.** What about the survival (treatment initiated at 2 weeks of age, survival through 8 weeks of age) of the same substance?
**A.** 100%
